In patent publication US9388126B2, “Sigma receptor ligands and methods of modulating cellular protein homeostasis using same” (Drexel University, priority 2012, dated 2016):
Read-outs that look alike come from different tables or passages of the source.

Key:
[1] = biological target: T1, Sigma1-HA-His6 protein associations in MDA-MB-468 cells (Mus musculus, UniProt O55242); assay: Ni-NTA co-purification of Sigma1-HA-His6 associated proteins; type: cell-based; details: 10 μM, 12 hours
T1 construct: expressed in transfected cells; host or cells: MDA-MB-468 breast adenocarcinoma cells
Text: FIG. 44, comprising FIGS. 44A-44D, illustrates the finding that p97/VCP is a Sigma1 associated protein. A novel assay was developed to evaluate Sigma1 ligand modulation of Sigma1 functions involving protein-protein interactions. FIG. 44A is an image of an immunoblot confirming expression of p97/VCP and Sigma1-HA-His6 in detergent soluble cell extracts added to Ni-NTA resin (input). FIG. 44B is an image of an immunoblot relating to eluate from a Ni-NTA affinity purified fraction. Co-isolation/co-purification of p97/VCP was accomplished with Sigma1-HA-His6, which was isolated/purified by Ni-NTA. […] FIG. 44C is an image of an immunoblot confirming expression of p97/VCP and Sigma1-HA-His6 in detergent-soluble cell extracts from MDA-MB-468 breast adenocarcinoma cells treated for 12 hours with 10 μM IPAG (Sigma1 putative antagonist); the extracts were added to Ni-NTA resin (input). FIG. 44D is an image of an immunoblot illustrating eluate from a Ni-NTA affinity purified fraction. Co-isolation/co-purification of p97/VCP was accomplished with Sigma1-HA-His6, which was isolated/purified by Ni-NTA. […] Molecular mass is presented in kilodaltons (kDa).
FIG. 45, comprising FIGS. 45A-45B, illustrates the finding that ubiquitylated proteins are bound to Sigma1. A novel assay was developed to evaluate Sigma1 ligand modulation of Sigma functions involving association with ubiquitylated proteins. […]

MDA-MB-468 cells [2] = assay: Cell death by trypan blue exclusion; type: cell-based, human
Protocol: Trypan blue exclusion and propidium iodide staining were used to quantify general cell death and the presence of apoptotic cell death was confirmed by immunoblot. The percentage of dead cells in a given population was determined by quantifying the number of trypan blue positive (dead) cells and dividing by the total number of trypan blue positive and negative cells.

MDA-MB-468 cells [3] = assay: ER stress / UPR marker immunoblots; type: cell-based, human; details: for EC50: mean of two determinations
Protocol: Cells were lysed and proteins extracted in a modified RIPA buffer (25 mM Tris-HCl pH 7.6, 150 mM NaCl, 1% NP-40, 1% sodium deoxycholate and 0.1% SDS) supplemented with 10% glycerol (volume/volume), complete protease inhibitor cocktail (Roche), and Halt phosphatase inhibitor cocktail (Pierce). Approximately 10-20 μg of detergent soluble protein were resolved on NOVEX 10-20% polyacrylamide Tris-glycine gels (InVitrogen). Immunoblots were performed in a 20 mM Tris-buffered 137 mM saline solution (pH 7.6) containing 0.1% Tween-20 (polyoxyethylene (20) sorbitan monolaurate) and 5% (weight/volume) blotting grade non-fat dry milk (BioRad). The Lumigen PS-3 enhanced chemiluminescence kit (GE Healthcare) was used to reveal immunoblotted proteins.
Whether Sigma antagonists immediately induce autophagy or whether it is activated downstream of other cellular events was next examined. As Sigma1 is highly enriched in the ER, next examined was whether antagonist treatment could induce ER stress mediated UPR. Components of the IRE1α-JNK1/2 and eIF2α-ATF4 branches of the UPR as well as the UPR-associated ER chaperone, GRP78/BiP, were assayed as indicators of activated UPR.
All of the above-mentioned markers of ER stress were evaluated following treatment with increasing doses of Sigma ligands in order to compare UPR with the dose-responsive activation of autophagy. Sigma1 antagonist, IPAG, activated the UPR in a dose-responsive manner (FIG. 6).

MDA-MB-468 cells [4] = assay: SubG1 population by flow cytometry; type: cell-based, human; details: 10 μM, 48 h
Protocol: FIG. 29 illustrates the time-course of a Sigma1 antagonist inducing apoptotic cell death of breast adenocarcinoma cells. Treatment with Sigma1 antagonist, IPAG, induces apoptotic cell death of MDA-MB-468 cells, as indicated by the percentage of subG1 phase cells. […] The far left panel represents cells treated or 24 hours with DMSO (vehicle control).
FIG. 37, comprising FIGS. 37A-37D, illustrates that inhibition of autophagy accelerates and/or potentiates Sigma1 antagonist induced apoptosis. FIG. 37A is a graph illustrating the time-course of Sigma antagonist-induced cell death as measured by flow cytometry. MDA-MB-468 cells were treated with DMSO (control), 10 μM IPAG (antagonist), or 10 μM PRE084 (agonist), fixed and stained with propidium iodide for DNA content analysis. The subG1 population was quantified and used as a measure of cell death. Data are from 4 independent determinations. FIG. 37B is an image of a Western blot of caspase 3 (Asp175) cleavage. IPAG induced apoptotic cell death occurred at the 48 hour treatment time point. FIG. 37C is a graph illustrating DA-MB-468 cells treated for 24 hours with a combination of IPAG (10 μM) and autophagy inhibitor 3-methyladenine (3-MA, 5 mM). Cell death was measured by trypan blue exclusion. […] For FIGS. 37A-37C, statistical significance was determined by two-way ANOVA followed by Bonferroni post-test, ***P<0.001.

T1 sequence (O55242 whole entry): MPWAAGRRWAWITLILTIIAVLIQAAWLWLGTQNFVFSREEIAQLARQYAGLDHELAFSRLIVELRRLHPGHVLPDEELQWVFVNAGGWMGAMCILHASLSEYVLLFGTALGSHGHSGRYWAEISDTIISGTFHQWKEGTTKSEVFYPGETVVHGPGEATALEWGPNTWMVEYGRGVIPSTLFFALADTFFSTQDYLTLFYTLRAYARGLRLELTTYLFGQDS

N=C(Nc1ccc(I)cc1)NC1C2CC3CC(C2)CC1C3 (stereo not drawn) [IPAG, 1-(4-iodophenyl)-3-(2-adamantyl)guanidine]
Sigma1-associated p97/VCP in Ni-NTA eluate [1]: Lower levels of Sigma1-associated p97/VCP | Sigma1-associated ubiquitylated proteins in Ni-NTA eluate [1]: Increased levels of Sigma1-associated ubiquitylated proteins | dead cells per well (MDA-MB-468 cells [2]; 10 μM, 24 hours, with 3-MA (5 mM) or siRNA knockdown of Beclin1): over 33% | proportion of dead cells (apoptotic cell death) (MDA-MB-468 cells [2]; 10 μM, 48 hours of continuous treatment): 30±2% | proportion of dead cells (MDA-MB-468 cells [2]; 24 hours, IRE1α knockdown): 47±8% | dead cells per well (MDA-MB-468 cells [2]; 24 hours, combined treatment with IPAG and 3-MA): 24±5% | proportion of dead cells (MDA-MB-468 cells [2]; 24 hours, control siRNA transfected cells): 9±4% | proportion of dead cells (MDA-MB-468 cells [2]; by 72 hours): > 75% | dead cells per well (MDA-MB-468 cells [2]; knockdown of ATF4): 30±9% | activation of UPR markers at a dose that does not produce autophagosomes (MDA-MB-468 cells [3]; 1 μM, 24 hours): salient activation of at least seven markers of UPR | EC50 (MDA-MB-468 cells [3]; 24 hours, read-out: EC50 for phosphorylation of JNK (Thr183/Tyr185)): 1700 nM | EC50 (MDA-MB-468 cells [3]; Homo sapiens, MDA-MB-468, 24 h, read-out: EC50 for induction of ATF4): 500 nM | EC50 (MDA-MB-468 cells [3]; Homo sapiens, MDA-MB-468, 24 h, read-out: EC50 for induction of IRE1α): 900 nM | EC50 (MDA-MB-468 cells [3]; Homo sapiens, MDA-MB-468, 24 h, read-out: EC50 for phosphorylation of JNK (Thr183/Tyr185)): 1600 nM | EC50 (MDA-MB-468 cells [3]; Homo sapiens, MDA-MB-468, 24 h, read-out: EC50 for phosphorylation of eIF2α (Ser51)): 2300 nM | EC50 (MDA-MB-468 cells [3]; Homo sapiens, MDA-MB-468, 24 h, read-out: EC50 for phosphorylation of p38MAPK (Thr180/Tyr182)): 500 nM | EC50 (MDA-MB-468 cells [3]; Homo sapiens, MDA-MB-468, 24 hours, read-out: EC50 for induction of GRP78/BiP): 1400 nM | subG1 (dead, apoptotic) cells (MDA-MB-468 cells [4]): 31.7%
